From patent US20120003270A1, “6-SUBSTITUTED ISOFLAVONOID COMPOUNDS AND USES THEREOF” (priority 2008, published 2012) come the findings set out here.

One data set concerns AA-induced ear swelling. Nature of the data set: Murine ear inflammation assay, arachidonic acid (AA). Particulars: 25 mg/kg i/p; for Change in ear thickness (mean ± SD, ×0.01 mm): 1 hr post-AA. Format: in vivo, mouse. As to the method: Groups of 5-6 female BALB/c mice (ARC, WA, Australia), weighing 15-21 g were injected intraperitoneally (i/p) with selected compounds of the formula (I) at 25 mg/kg delivered in polyethylene glycol (PEG) 400: phosphate buffered saline (PBS) 1:1 or ethanol: propanediol:PBS 4:9:7 either 30 min prior to or immediately before the inflammogen was applied to the ears. Mice were anaesthetised using isoflurane and baseline thickness of both ears was measured using a spring micrometer. Each mouse received a total of […] of either AA in ethanol (50 mg/ml or 200 mg/ml) or PMA in either ethanol or acetone (0.2 mg/ml) applied to the inner and outer surfaces of each pinna (i.e. 0.5 mg or 2 mg AA or 2 μg PMA per ear). Mice were anaesthetised again to re-measure the ears at 1 hr post-AA application and 5 hr after PMA. The difference in ear swelling pre- and post-application of inflammogen for each ear was calculated, and the average for the two ears of each mouse taken. The difference in mean swelling of each test group compared to the group given vehicle alone was calculated using a general ANOVA using Dunnett's Multiple Comparison test when multiple compounds were tested in the one experiment or a two-tailed unpaired t-test when only one compound was tested (Prism 4, Graphpad Software).

For a further data set, the system named is HUVECs. As to the kind of experiment: Microscopic appearance of HUVECs. It counts as cell-based, human. As to the method:
An effect on cell growth was observed microscopically at 100 μM but not at the lower doses. Normal HUVECs were predominantly epithelioid but included some spindle shaped cells. Cells were mainly healthy and viable, as indicated by their translucent appearance and adherence to the culture dish. Floating cells were presumed non-viable.

Data set [1] can be described thus: Interaction with Cu(II) (UV/Vis absorption spectra). Format: physicochemical. The following applies: 25 μM compound + 25 μM CuSO4, 1:1 molar ratio, pH 7.2. As to the method:
The non-specific binding of compound (1) to Cu^++ was also examined in duplicate on different days. A stock solution of test compounds was prepared in DMSO at a concentration of 5 mM. The UV/Vis absorption spectra of was then determined between 200 and 800 nm after dilution of test compounds to 25 μM in phosphate buffer (10 mM, pH 7.2, chelex treated). Interactions of the compounds with Cu(II) were determined by scanning a second overlaying absorption spectrum over 200 to 800 nm, in which 25 μM CuSO4 solution was added to a fresh 25 μM solution of test compounds and mixed for 20 seconds.

Data set [2] in a line: Pharmacokinetics after a single oral dose in mice. The following applies: urine, oral 25 mg/kg; for AUC: mouse. Format: in vivo, mouse.
A further data set has as its system aortic ring. Nature of the data set: Rat aortic ring assay (contraction to noradrenaline). The following applies: 1 μg/ml, p=0.045, read-out: Inhibition of the contractile response (logEC50) to noradrenaline compared with vehicle alone. As to the method:
Male Sprague-Dawley rats (250±50 g) were euthanased with 80% CO2 and 20% O2. The thoracic aorta was excised and quickly mounted in organ-baths as described (Chin-Dusting et al. 2001). Full concentration-contractile curves were obtained to noradrenaline (0.1 nM-10 mM) with and without test compounds delivered at a concentration of 1 μg/ml. Experiments were repeated in n=5 different rings from 5 different animals. Only one compound at any one concentration was tested on any one ring from any one animal. Sigmoidal dose response curves were fitted for the data and the logEC50 calculated (Prism 4, GraphPad Software). The difference in these values between the presence and absence of test compound was calculated using a two-tailed paired t test. The effects of β-oestrodiol and vehicle alone were examined as a positive and negative control respectively.

The next data set has as its system TXA2. As to the kind of experiment: TXA2 synthesis in RAW 264.7 (ELISA). Format: cell-based, mouse. The following applies: LPS 50 ng/ml, 16 hrs. As to the method: The mouse macrophage cell line RAW 264.7 was cultured in DMEM supplemented with foetal calf serum (FCS), 2 mM glutamine and 50 U/ml penicillin/streptomycin. Cells were treated with either test compounds (in 0.025% DMSO) or vehicle alone, and added one hour before 50 ng/ml LPS. After incubation for 16 hrs, culture media was collected for PGE2 or TXB2 measurement by ELISA (Cayman Chemical), and TNFα measurement using an ELISA (Becton Dickinson).

The next data set deals with rabbit kidney (RK-13). Nature of the data set: Toxicity in normal cells (MTT), RK-13. Format: cell-based. Particulars: Oryctolagus cuniculus, RK-13, 120 h, 5 days, top concentration 150 μM, read-out: Normal cell viability IC50. As to the method: Human neonatal fibroblast foreskin (NFF—a gift from Dr. Peter Parsons, Queensland Institute of Medical Research) or rabbit kidney (RK-13—a gift from Prof. Miller Whalley, Macquarie University) cells were seeded into 96 well plates and cultured in RPMI supplemented with 10% FCS (CSL, Australia), penicillin (100 U/ml), streptomycin ([…]), L-glutamine (2 mM) and sodium bicarbonate (1.2 g/L) at 37° C. and 5% CO2 for 24 hours until cells had attached and entered log phase of growth. Test compounds were added in serial two-fold dilutions from 150 μM in triplicate and incubated for a further 5 days. MTT was then added to each well, incubated for 3 hours at 37° C., after which the medium was tipped off. Following the addition of DMSO, the absorbance for each well was read on a plate reader. The assays were repeated at least twice.

Another data set has as its system RAW 264.7. Nature of the data set: Toxicity in RAW 264.7. Format: cell-based, mouse.
In a further data set the test system is THP-1 cells. As to the kind of experiment: Cytotoxicity in the THP-1 NFκB assay. Format: cell-based, human. Particulars: at active concentrations.
The test system of data set [3] is adjuvant-induced arthritis. Nature of the data set: Rat adjuvant-induced arthritis model. It counts as in vivo. As to the method: Male Dark Agouti (DA) strain (DA.CD45.1) rats were fed with either compound (1)-treated feed or placebo-treated feed for seven days prior to the injection of Complete Freund's adjuvant (0.1 ml) into the base of the tail. The treated feeds were continued throughout the experiment. Arthritis, which became evident at Day 8 was subjectively scored each day by an operator blinded to the identity of treatments and using a scoring system as follows: • 0 (no evidence of arthritis); • 1 (1 or 2 red, swollen joints but no other swelling); • 2 (carpus or tarsus swollen or more than 2 small joints swollen); • 3 (some red swollen joints and carpus or tarsus swollen, but not global swelling); • 4 (severe global swelling of the entire paw). Therefore, the disease score for individual rats ranged between 0 and 16. Rats (n=8 per group) were killed on Day 12. Data were analysed using a two way ANOVA (Prism 4 for Windows, GraphPad Software Inc).

Turning to `CN(C)Cc1cc2c(cc1O)OCC(c1ccc(O)cc1)=C2` [Compound (1)], the “% Change compared with vehicle” value in the data set with AA-induced ear swelling was −7.0%. The “Change in ear thickness (mean ± SD, ×0.01 mm)” value in the data set on AA-induced ear swelling is 24.1 ± 0.1 ×0.01 mm. Further, the “Microscopic appearance of treated cells” value with HUVECs was “appeared healthy”. Moreover, in [1], the “Interaction with Cu^2+” value was “did not interact with Cu^2+”. The AUC (in general, the area under the concentration-time curve, a measure of exposure) in data set [2] was 9.3 µM·h. In [2], the “[max]free (μM, mean ± SD)” value stood at 5.6 ± 6.7 µM. In the data set on aortic ring, the inhibition (as a rule, the drop in the measured response relative to a control, in per cent) at 1 µg/mL was determined as 23%. In addition, the “TXB2” value in the data set with TXA2 (1 μM) came to 1333.17 ± 121.78 pg/mL; in the data set on TXA2 (10 μM), 1149.14 ± 480.27 pg/mL. Moreover, the IC50 (commonly the concentration that gives 50% inhibition) in the data set with rabbit kidney (RK-13) is more than 150 µM; with RAW 264.7 (Mus musculus, RAW264.7), 53.9 ± 1.2 µM. The “Effect on the viability of RAW 264.7 cells” value with RAW 264.7 is reported as “little effect on the viability”. Moreover, the Cytotoxicity result in the data set with THP-1 cells is listed as “absence of cytotoxicity”. Also, the “Joint score (mean ± SD)” value in [3] (Day 7, treated feed, score 0-16) is 0; in data set [3] (Day 8, placebo 0.38 ± 0.52), 0.5 ± 0.53; in data set [3] (Day 9, placebo 4.75 ± 1.28), 3.25 ± 1.58; in [3] (Day 10, placebo 7.75 ± 1.39) it was 6.25 ± 1.49; in data set [3] (Day 11, placebo 11.75 ± 1.04), 9.25 ± 1.28; in data set [3] (Day 12, placebo 14.13 ± 1.46), 12.75 ± 2.92. In addition, in [3] (two way ANOVA), the “Arthritis score compared with placebo feed (in words)” value is reported as “statistically significant (p=0.008) reduction in arthritis score”.

Turning to `O=C(O)C1CCCN1Cc1cc2c(cc1O)OCC(c1ccc(O)cc1)=C2` (centres unmarked) [Compound (3)], the melting point (usually the temperature of the solid-liquid transition) is 240 °C (dec.). Also, in the data set with AA-induced ear swelling, the “% Change compared with vehicle” value is listed as −5.9% and the “Change in ear thickness (mean ± SD, ×0.01 mm)” value was 22.2 ± 1.9 ×0.01 mm. In the data set with HUVECs, the “Microscopic appearance of treated cells” value is “appeared healthy”. In addition, in data set [2], the AUC is 34 µM·h and the “[max]free (μM, mean ± SD)” value is 3.9 ± 2.4 µM. Moreover, the “TXB2” value in the data set with TXA2 (1 μM) worked out at 374.8 ± 132.29 pg/mL. For the same compound, the “TXB2” value in the data set with TXA2 (10 μM) is 287.04 ± 75.58 pg/mL. Moreover, the IC50 in the data set with rabbit kidney (RK-13) is more than 150 µM.
